Experimental data reported in paper PMC3388883, “Parallel and four-step synthesis of natural-product-inspired scaffolds through modular assembly and divergent cyclization” (Beilstein Journal of Organic Chemistry, 2012).
≈ marks a conversion by molar mass, not a printed value. Read-outs that look alike come from different tables or passages of the source.

How the values were obtained:
[1] = test system: T. brucei brucei GUTat 3.1; experiment: In vitro anti-trypanosomal activity (Alamar Blue); assay type: cell-based, Trypanosoma brucei brucei; settings: for Selectivity Index (SI): (IC50 for MRC-5)/(IC50 for T. brucei brucei); for IC50: Trypanosoma brucei, read-out: IC50 anti-trypanosomal activity; for IC50 / IC50 anti-trypanosomal activity: 72 h
Method: With collections of the natural-product-inspired molecules in hand, in vitro anti-trypanosomal activities were evaluated by employing a GUTat 3.1 strain of T. brucei brucei (Table 1) according to the previously reported protocols (Supporting Information File 1). […] Thus, this preliminary assessment supports the idea that the collections of natural-product-inspired scaffolds could have high hit rates against biological screenings, even without having structural information about the biological targets and small-molecule modulators related to the targeted cellular functions. Further screening investigations of the synthetic collections prepared in the four-step process are currently underway in our laboratories.
Assay for in vitro anti-trypanosomal activity against T. brucei species According to a procedure previously used in [Toriizuka et al. Bioorg. Med. Chem. 2008, 16, 10182–10189.], Trypanosoma brucei brucei strain GUTat 3.1 (Glasgow University, Trypanozoon antigenic type 3.1) was generously donated from Dr. Y. Yabu (Nagoya City University). T. brucei brucei GUTat 3.1 strain was cultured in IMDM with 3.024 g/L NaHCO3, 100 μM hypoxanthine, 30 μM thymidine, 40 μM adenosine, 1.0 mM sodium pyruvate, 50 μM L-glutamine, 100 μM 2-mercaptoethanol, 50 U/mL of penicillin, and 50 μg/mL of streptomycin containing 10% heat-inactivated FBS at 37 °C, under 5.0% CO2–95% air, according to the protocol of [Yabu et al.
Southeast Asian J. Trop. Med. Public Health 1998, 29, 591]. In vitro antitrypanosomal activity of the test compounds was evaluated from a dose–response curve utilizing the fluorescent dye, Alamar Blue, according to the method of [Räz et al. Acta Trop. 1997, 68, 139 and Tasdemir et al.
Antimicrob. Agents Chemother. 2006, 50, 1352] with some modifications. Ninety-five microliters of trypanosome suspension ([…] trypanosomes/mL for GUTat 3.1 strain) of bloodstream forms was seeded into a 96-well microplate and 5.0 μL of test compound solution (dissolved in 5.0% dimethylsulfoxide: DMSO) was added. After incubating for 72 h at 37 °C under 5.0% CO2–95% air, 10 μL of Alamar Blue was added to each well. After further incubation for 3–6 h at 37 °C under 5.0% CO2–95% air, the microplate was measured at 528/20 nm excitation wavelength and 590/35 nm emission wavelength with an FLx800 fluorescent plate reader (Bio-Tek Instrument, Inc.Vermont, USA). Data were transferred into a graphic program (Excel) and the 50% inhibitory concentration (IC50) values were determined with fluorescent plate reader software (KC-4, […]
(§1) Cytotoxicity tests on MRC-5 cells
(§2) The human diploid embryonic cell line, MRC-5, was a generous gift from Dr. L. Maes (Tibotec NV, Mechelen, Belgium). Cytotoxicity of the test compound was measured by the colorimetric MTT assay [Mossman, T. J. Immunol. Methods 1983, 65, 55 and Otoguro, K. et al. ATLA:Alternatives to Laboratory Animals 1991, 19, 352] in 96-well microplates. In brief, 100 μL of MRC-5 cell suspension was added to 96-well microplates at 1 × 10^3 cells/well and the cells were cultured for 24 h. Then, 90 μL of standard culture medium (MEM + 10% FCS) with or without 10 μL of test compound solution that was dissolved in 25% ethanol or 5% DMSO was added to each well.
(§3) Further incubation was conducted at 37 °C under 5% CO2–95% air for 7 days and then 20 μL of MTT–PBS solution (5 mg/mL) was added to each well. The microplate was incubated at 37 °C for 4 h under 5% CO2–95% air. Then, the incubation medium was aspirated and 100 μL of DMSO was added to solubilize the MTT formazan product. After mixing, absorbance at 540 nm was measured with iEMS microplate reader MF. The IC50 value was estimated from the dose–response curve.

[2] = Cytotoxicity on MRC-5 cells (MTT assay); assay type: cell-based; settings: human, MRC-5 cells (human diploid embryonic cell line)
Method: as §1, §2, §3

[3] = T. brucei brucei GUTat 3.1 strain
[4] = T. brucei brucei GUTat 3.1 strain, 2.0–2.5 × 10^4 trypanosomes/mL

| Compound | Selectivity Index (SI) [1] | IC50 [1] | IC50 at 7 days [2] | antitrypanosomal activity (in words) [1, 3] | IC50 [1, 4] | IC50 anti-trypanosomal activity [1, 4] |
| --- | --- | --- | --- | --- | --- | --- |
| Cc1ccc(C(=O)Nc2ccc(S(=O)(=O)O)c3cc(S(=O)(=O)O)cc(S(=O)(=O)O)c23)cc1NC(=O)c1cccc(NC(=O)Nc2cccc(C(=O)Nc3cc(C(=O)Nc4ccc(S(=O)(=O)O)c5cc(S(=O)(=O)O)cc(S(=O)(=O)O)c45)ccc3C)c2)c1 [suramin, reference compound] | >63 | 1.58 µg/mL (≈ 1.22 µM) | > 100 µg/mL |  |  |  |
| CC(=O)[C@@]12O[C@@]34N(CCC[C@]3(C)C(=O)N([C@H](C(=O)NC(C)(C)C)c3cn(S(=O)(=O)c5ccccc5[N+](=O)[O-])c5ccccc35)C[C@]43c4ccccc4N(S(=O)(=O)c4ccccc4[N+](=O)[O-])[C@H]13)C2=O [30b] |  | > 12.5 µg/mL |  | negligible |  |  |
| CC(=O)[C@]12O[C@]34[C@@H](CN([C@H](C(=O)NC(C)(C)C)c5cn(S(=O)(=O)c6ccccc6[N+](=O)[O-])c6ccccc56)C(=O)[C@@]3(C)CCCN4C1=O)C2(C)C [41b] | 5.9 |  | 34.6 µg/mL (≈ 48.1 µM) |  | 5.89 µg/mL (≈ 8.18 µM) |  |
| NCCCC(N)(C(=O)O)C(F)F (stereo not shown) [eflornithine, reference compound] | >44 |  | > 100 µg/mL |  | 2.27 µg/mL (≈ 12.5 µM) |  |
| COc1ccc(CN2C(=O)[C@@]3(C)CCCN4C(=O)[C@]5(C(C)=O)O[C@@]43[C@@]3(c4ccccc4N(S(=O)(=O)c4ccccc4[N+](=O)[O-])[C@H]53)[C@H]2C(=O)NC(C)(C)C)cc1 (racemic) [25b] |  |  |  | negligible | > 12.5 µg/mL |  |
| CC(=O)[C@@]12O[C@@]34N(CCC[C@]3(C)N([C@@H](CC(C)C)C(=O)NC(C)(C)C)C(=O)[C@]43c4ccccc4N(S(=O)(=O)c4ccccc4[N+](=O)[O-])[C@H]13)C2=O [63a] |  |  |  | insignificant activities |  |  |
| COc1ccc(CN2C(=O)[C@@]3(C)CCCN4C(=O)[C@]5(C(C)=O)O[C@@]43[C@@]3(c4ccccc4N(S(=O)(=O)c4ccccc4[N+](=O)[O-])[C@H]53)[C@@H]2C(=O)NC(C)(C)C)cc1 (racemic) [25a] | 4.1 |  | 24.5 µg/mL (≈ 31.7 µM) |  | 5.9 µg/mL (≈ 7.64 µM) |  |
| CC(=O)C12OC34N(CCCC3(C)N(C(CC(C)C)C(=O)NC(C)(C)C)C(=O)C43c4ccccc4N(S(=O)(=O)c4ccccc4[N+](=O)[O-])C13)C2=O (stereo not shown) [63b] |  |  |  | insignificant activities |  |  |
| N=C(N)c1ccc(OCCCCCOc2ccc(C(=N)N)cc2)cc1 [pentamidine, reference compound] | 3600 |  | 5.71 µg/mL (≈ 16.8 µM) |  | 0.00158 µg/mL (≈ 0.00464 µM) |  |
| CC(=O)C12CC3CN(C(C(=O)NC(C)(C)C)c4cn(S(=O)(=O)c5ccccc5[N+](=O)[O-])c5ccccc45)C(=O)C4(C)CCCN(C1=O)C34O2 (stereo not shown) [39b] | 8.7 |  | 4.02 µg/mL (≈ 5.81 µM) |  |  | 0.46 µg/mL (≈ 0.665 µM) |
| CC(=O)C12CC3CN(C(C(=O)NC(C)(C)C)c4cn(S(=O)(=O)c5ccccc5[N+](=O)[O-])c5ccccc45)C(=O)C4(C)CCCN(C1=O)C34O2 (stereo not shown) [39a] |  |  |  | negligible activities |  | >12.5 µg/mL |
| CC(=O)[C@@]12C[C@@H]3CN([C@H](C(=O)NC(C)(C)C)c4c[nH]c5ccccc45)C(=O)[C@@]4(C)CCCN(C1=O)[C@@]34O2 [39c] |  |  |  | substantial loss of the activities | > 12.5 µg/mL |  |
